From ChEMBL document CHEMBL1201862, “PubChem BioAssay data set” (2004)
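All cell lines were grown in 96-well plates and treated with compound for 48 hours. GI50: concentration for 50% inhibition of growth.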 Active and inactive are the calls of the source. Cut-off read from the data, not from the text of the source: active = GI50 up to about 1.1 µM and inactive = higher.

What was measured:
Assay in all cases: NCI anticancer screen, dose series, 48 h
A498 = tested on: A498
DU-145 = tested on: DU-145
HCT-116 = tested on: HCT-116
HOP-92 = tested on: HOP-92
IGROV-1 = tested on: IGROV-1
Malme-3M = tested on: Malme-3M
NCI-H226 = tested on: NCI-H226
NCI-H23 = tested on: NCI-H23
NCI/ADR-RES = tested on: NCI/ADR-RES
OVCAR-3 = tested on: OVCAR-3
OVCAR-5 = tested on: OVCAR-5
OVCAR-8 = tested on: OVCAR-8
SF-295 = tested on: SF-295
SK-MEL-2 = tested on: SK-MEL-2
SK-MEL-5 = tested on: SK-MEL-5
SK-OV-3 = tested on: SK-OV-3
SNB-19 = tested on: SNB-19
SNB-75 = tested on: SNB-75
UACC-62 = tested on: UACC-62
KM12 = tested on: KM12

Measured: GI50

COc1ccc(C(=O)/C=C/c2ccncc2)cc1OC
inactive: A498 17.1 µM | DU-145 17.7 µM | HCT-116 6.44 µM | HOP-92 14.1 µM | IGROV-1 12.9 µM | Malme-3M 18.3 µM | NCI-H226 15.5 µM | NCI-H23 10.7 µM | NCI/ADR-RES 19.7 µM | OVCAR-3 6.27 µM | OVCAR-5 14.3 µM | OVCAR-8 15.3 µM | SF-295 16.1 µM | SK-MEL-2 16.7 µM | SK-MEL-5 16.4 µM | SK-OV-3 17.2 µM | SNB-19 18.5 µM | SNB-75 13.5 µM | UACC-62 15.5 µM

O=C1N[C@@H]2c3c(csc3Br)C(=O)[C@@H]2O1
inactive: A498 > 100 µM | DU-145 39.1 µM | HCT-116 27.8 µM | HOP-92 20.8 µM | IGROV-1 26.5 µM | KM12 47 µM | Malme-3M 32 µM | NCI-H23 41.7 µM | NCI/ADR-RES 96.4 µM | OVCAR-3 20.7 µM | OVCAR-5 74 µM | OVCAR-8 22.2 µM | SF-295 59.2 µM | SK-MEL-2 46.5 µM | SK-MEL-5 > 100 µM | SK-OV-3 90.4 µM | SNB-19 94 µM | SNB-75 48.4 µM | UACC-62 34.1 µM

CC1=CC[C@@]2(C)CC[C@](O)(C(C)C)C2C(OC(=O)c2ccccc2)C1 (stereo partly specified)
inactive: A498 24.4 µM | DU-145 18.1 µM | HCT-116 17.3 µM | HOP-92 15.1 µM | IGROV-1 15.6 µM | KM12 18.4 µM | Malme-3M 21 µM | NCI-H226 23.8 µM | NCI-H23 18.5 µM | NCI/ADR-RES 19.7 µM | OVCAR-3 17.5 µM | OVCAR-5 16 µM | OVCAR-8 19.4 µM | SF-295 15.6 µM | SK-MEL-2 14.4 µM | SK-MEL-5 18.3 µM | SK-OV-3 14.3 µM | SNB-19 20.7 µM | SNB-75 17.5 µM

C/C=C1\C(=O)OC2CCN3CCC(COC(=O)C(C)(O)C(C)C1O)C23 (stereo unspecified)
inactive: A498 > 100 µM | DU-145 > 100 µM | HCT-116 > 100 µM | HOP-92 > 100 µM | IGROV-1 > 100 µM | KM12 > 100 µM | Malme-3M > 100 µM | NCI-H226 > 100 µM | NCI-H23 > 100 µM | NCI/ADR-RES > 100 µM | OVCAR-5 > 100 µM | OVCAR-8 > 100 µM | SF-295 > 100 µM | SK-MEL-2 > 100 µM | SK-MEL-5 > 100 µM | SK-OV-3 > 100 µM | SNB-19 > 100 µM | SNB-75 > 100 µM | UACC-62 > 100 µM

Cc1ccc(-n2c(N)c(C#N)c3[nH]nc(N)c3c2=O)cc1
inactive: A498 > 100 µM | DU-145 > 100 µM | HCT-116 > 100 µM | HOP-92 > 100 µM | IGROV-1 > 100 µM | KM12 > 100 µM | NCI-H226 41 µM | NCI-H23 > 100 µM | NCI/ADR-RES > 100 µM | OVCAR-8 > 100 µM | SF-295 > 100 µM | SK-MEL-2 > 100 µM | SK-MEL-5 > 100 µM | SK-OV-3 > 100 µM | SNB-19 > 100 µM | SNB-75 > 100 µM | UACC-62 > 100 µM

CCNC(=S)N/N=C1\C(=O)Nc2ccc([N+](=O)[O-])cc21
inactive: A498 22.9 µM | DU-145 33 µM | HCT-116 27.7 µM | HOP-92 34 µM | IGROV-1 31.6 µM | KM12 52.7 µM | Malme-3M 57.8 µM | NCI-H226 97.7 µM | NCI-H23 > 100 µM | NCI/ADR-RES 32.8 µM | OVCAR-3 40.4 µM | OVCAR-5 > 100 µM | OVCAR-8 34.7 µM | SF-295 29.3 µM | SK-MEL-2 > 100 µM | SK-MEL-5 35.1 µM | SK-OV-3 39.4 µM | SNB-19 45.4 µM | UACC-62 99.1 µM

COc1cc(O)c(C(=O)/C=C/c2ccc(O)cc2)cc1Oc1ccc(C(=O)/C=C/c2ccc(O)cc2)c(O)c1 [RHUSCHALCONE IV]
inactive: A498 2.05 µM | DU-145 2.29 µM | HCT-116 1.8 µM | HOP-92 4.36 µM | IGROV-1 1.67 µM | KM12 1.44 µM | Malme-3M 2.58 µM | NCI-H23 2.67 µM | NCI/ADR-RES 2.91 µM | OVCAR-3 2.87 µM | OVCAR-5 2.69 µM | OVCAR-8 2.59 µM | SF-295 3.76 µM | SK-MEL-2 3.36 µM | SK-MEL-5 1.92 µM | SK-OV-3 2.88 µM | SNB-19 4.53 µM | SNB-75 4.21 µM | UACC-62 2.33 µM
